Laboratory results taken from patent US4175081A, “5-Substituted thiadiazole ureas” (priority 1977, dated 1979).

Experiments:
Cotton (CT) [1] = experiment: Post-emergence herbicide test; format: in vivo, Gossypium hirsutum var. DPL smooth leaf; details: Gossypium hirsutum, post-emergence, 336 h, two weeks after treatment; for pest or weed control at 8966.8 g/ha: 8 lb/acre
Summary of the method: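 This greenhouse post-emergence test measured how well spray treatments controlled cotton. Seedlings of Gossypium hirsutum var. DPL smooth leaf, with expanded cotyledons and a first true leaf 1' in length, were sprayed with 50 ml formulations in a belt-fed spray hood. They were then returned to the greenhouse and watered only by sub-irrigation. Injury was scored visually as % control after two weeks.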

Johnson grass (JG) [2] = experiment: Pre-emergence herbicide test; format: in vivo, Sorgum helepense; details: Sorghum halepense, 336 h, two weeks after treatment; for pest or weed control at 8966.8 g/ha: 8 lb/acre
Summary of the method: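 Visual injury or control rating two weeks post-treatment, after pre-emergence spray of 8 or 4 lbs active per acre (38 gal/acre) onto pots sown the previous day. Greenhouse watering by sub-irrigation only.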

[3] = test system: Yellow foxtail grass (YF); experiment: Post-emergence herbicide test; format: in vivo, Setaria glauca; details: Setaria, 336 h, two weeks after treatment; for pest or weed control at 8966.8 g/ha: 8 lb/acre
Summary of the method: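 Visual rating of injury/control made 2 weeks post-spray. Seedlings at a uniform growth stage in soil-filled pots received a hood spray of 8 lbs/acre active compound, 38 gallons/acre volume, with a 4 lbs/acre rate also formulated. Watering was by sub-irrigation only.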

Barnyard grass (BG) [4] = experiment: Pre-emergence herbicide test; format: in vivo; details: Echinochloa crus-galli, 336 h, two weeks after treatment; for pest or weed control at 8966.8 g/ha: 8 lb/acre
Summary of the method: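 Greenhouse pre-emergence spray test: pots seeded one day before treatment received compound at rates of 8 or 4 lb/acre (38 gal/acre). Visual injury/control scores for Echinochloa crus-galli taken at two weeks, with watering by sub-irrigation only.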

Corn (CN) [5] = experiment: Post-emergence herbicide test; format: in vivo; details: Zea mays, 336 h, two weeks after treatment; for pest or weed control at 8966.8 g/ha: 8 lb/acre
Summary of the method: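 Greenhouse seedlings grown in potting soil and sprayed post-emergence at 8 lbs compound/acre (formulations also made for 4 lbs/acre) in 38 gallons/acre spray volume. Watering by sub-irrigation only. Injury or control rated visually two weeks after treatment.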

Turnip (TP) [6] = experiment: Pre-emergence herbicide test; format: in vivo, Brassica sp.; details: Brassica rapa, pre-emergence, 336 h, two weeks after treatment; for pest or weed control at 8966.8 g/ha: 8 lb/acre
Summary of the method: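 In this pre-emergence greenhouse test, turnip was seeded on the surface of potting soil in 3' plastic pots, lightly covered with screened soil, and watered from below. One day later the pots were sprayed in a belt-fed spray hood. Watering continued only by sub-irrigation, and percent control was visually scored two weeks after treatment.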

[7] = test system: Yellow foxtail grass (YF); experiment: Pre-emergence herbicide test; format: in vivo, Setaria glauca; details: Setaria, 336 h, two weeks after treatment; for pest or weed control at 8966.8 g/ha: 8 lb/acre
Summary of the method: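 Visual rating of injury/control made two weeks after a pre-emergence spray of 8 or 4 lbs active per acre (38 gal/acre) onto pots seeded the previous day. Greenhouse watering by sub-irrigation only.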

Bean (BN) [8] = experiment: Post-emergence herbicide test; format: in vivo, Phaseolus vulgaris var. Black Valentine; details: Phaseolus vulgaris, post-emergence, 336 h, two weeks after treatment; for pest or weed control at 8966.8 g/ha: 8 lb/acre
Summary of the method: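 Bean seedlings (Phaseolus vulgaris var. Black Valentine) were grown in potting soil in 3' pots until the primary leaves expanded. They were then sprayed under a hood with a removable belt and fixed nozzle, using 50 ml formulations. Afterward they were returned to the greenhouse and watered only by sub-irrigation. Percent control was judged visually two weeks after treatment.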

Amaranth pigweed (PW) [9] = experiment: Post-emergence herbicide test; format: in vivo, Amaranthus retroflexus; details: 336 h, two weeks after treatment; for pest or weed control at 8966.8 g/ha: 8 lb/acre
Summary of the method: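 Visual injury or control ratings were made two weeks after spraying, with greenhouse watering by sub-irrigation only. Treatment was post-emergence, when pigweed seedlings had 1 or 2 true leaves, at 8 lbs active compound per acre (4 lbs/acre formulations also made) in a 38 gallons-per-acre spray volume.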

Johnson grass (JG) [10] = experiment: Post-emergence herbicide test; format: in vivo, Sorgum helepense; details: Sorghum halepense, 336 h, two weeks after treatment; for pest or weed control at 8966.8 g/ha: 8 lb/acre
Summary of the method: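 Visual injury or control scores taken 2 weeks after a post-emergence spray of pot-grown plants. Application was 8 lbs/acre (or 4 lbs/acre) in 38 gal/acre. Plants were held in the greenhouse with sub-irrigation only.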

Turnip (TP) [11] = experiment: Post-emergence herbicide test; format: in vivo, Brassica sp.; details: Brassica rapa, post-emergence, 336 h, two weeks after treatment; for pest or weed control at 8966.8 g/ha: 8 lb/acre
Summary of the method: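 A greenhouse post-emergence herbicide test on turnip. Seeds were sown on the surface of potting soil in 3' plastic pots, lightly covered with screened soil and watered from below. Planting was timed so seedlings had 1 or 2 true leaves above the cotyledons at spraying, done in a hood with a fixed nozzle. Control or injury was scored by eye after two weeks.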

Barnyard grass (BG) [12] = experiment: Post-emergence herbicide test; format: in vivo; details: Echinochloa crus-galli, 336 h, two weeks after treatment; for pest or weed control at 8966.8 g/ha: 8 lb/acre
Summary of the method: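 Greenhouse pot-grown barnyard grass seedlings sprayed post-emergence at 8 lbs active compound per acre (some at 4 lbs/acre) in 38 gallons per acre, then sub-irrigated. Injury or control rated visually two weeks after treatment.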

Amaranth pigweed (PW) [13] = experiment: Pre-emergence herbicide test; format: in vivo, Amaranthus retroflexus; details: 336 h, two weeks after treatment; for pest or weed control at 8966.8 g/ha: 8 lb/acre
Summary of the method: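 Visual injury or control ratings were made at two weeks on pre-emergence pots, sub-irrigated in the greenhouse. Seeds were sown a day before a hood spray delivering 8 lbs/acre (or 4 lbs/acre) of compound in 38 gallons per acre.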

Crabgrass (CG) [14] = experiment: Pre-emergence herbicide test; format: in vivo, Digitaria sanquinalis; details: Digitaria sanguinalis, pre-emergence, 336 h, two weeks after treatment; for pest or weed control at 8966.8 g/ha: 8 lb/acre
Summary of the method: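 Crabgrass (Digitaria sanquinalis) was surface seeded in 3' plastic pots of potting soil, covered with screened soil, and watered by sub-irrigation in greenhouse trays. Pots were seeded one day before spraying in a hood with a moving belt and fixed nozzle. Plants stayed in the greenhouse on sub-irrigation, and pre-emergence control was rated visually two weeks after treatment.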

Bean (BN) [15] = experiment: Pre-emergence herbicide test; format: in vivo, Phaseolus vulgaris var. Black Valentine; details: Phaseolus vulgaris, 336 h, two weeks after treatment; for pest or weed control at 8966.8 g/ha: 8 lb/acre
Summary of the method: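 Visual injury/control ratings were taken two weeks post-spray on sub-irrigated Phaseolus vulgaris var. Black Valentine. Pots were sown a day before treatment. Pre-emergence spray delivered 8 lbs actual compound per acre (or 4 lbs/acre) at 38 gallons per acre.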

Cotton (CT) [16] = experiment: Pre-emergence herbicide test; format: in vivo, Gossypium hirsutum var. DPL smooth leaf; details: Gossypium hirsutum, 336 h, two weeks after treatment; for pest or weed control at 8966.8 g/ha: 8 lb/acre
Summary of the method: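 Visual injury/control ratings were taken at two weeks post-spray. Pots seeded a day earlier received compound pre-emergence at 8 lbs/acre, or 4 lbs/acre, in a 38 gallon/acre spray volume, and were then held in the greenhouse, watered only from below.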

Crabgrass (CG) [17] = experiment: Post-emergence herbicide test; format: in vivo, Digitaria sanquinalis; details: Digitaria sanguinalis, post-emergence, 336 h, two weeks after treatment; for pest or weed control at 8966.8 g/ha: 8 lb/acre
Summary of the method: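 Crabgrass (Digitaria sanquinalis) was surface seeded individually in 3' plastic pots of potting soil, covered with screened soil, and watered by sub-irrigation in greenhouse trays. Planting was staggered so seedlings reached the target stage together. Post-emergence sprays were applied in a hood with a removable belt and fixed nozzle, and control was visually rated two weeks after treatment.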

Corn (CN) [18] = experiment: Pre-emergence herbicide test; format: in vivo; details: Zea mays, 336 h, two weeks after treatment; for pest or weed control at 8966.8 g/ha: 8 lb/acre
Summary of the method: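 Visual injury/control ratings were made 2 weeks post-spray on corn pots seeded (4 seeds, seed-diameter depth) the day before treatment. Application was a belt-hood spray of 38 gal/acre delivering 8 lbs active per acre, with a 4 lbs/acre rate also formulated. Watering was by sub-irrigation throughout.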

## CNC(=O)Nc1nnc(S(C)(=O)=O)s1 [Example 33]
Cotton (CT) [1]; 2 lb/acre
  pest or weed control at 2241.7 g/ha: 40%
Cotton (CT) [1]; 4 lb/acre
  pest or weed control at 4483.4 g/ha: 100%
Cotton (CT) [1]
  pest or weed control at 8966.8 g/ha: 100%
Johnson grass (JG) [2]; 2 lb/acre
  pest or weed control at 2241.7 g/ha: 80%
Johnson grass (JG) [2]; 4 lb/acre
  pest or weed control at 4483.4 g/ha: 60%
Johnson grass (JG) [2]
  pest or weed control at 8966.8 g/ha: 70%
[3]; 2 lb/acre
  pest or weed control: 70%
[3]; 4 lb/acre
  pest or weed control at 4483.4 g/ha: 100%
[3]
  pest or weed control at 8966.8 g/ha: 90%
Barnyard grass (BG) [4]; 2 lb/acre
  pest or weed control at 2241.7 g/ha: 70%
Barnyard grass (BG) [4]; 4 lb/acre
  pest or weed control at 4483.4 g/ha: 90%
Barnyard grass (BG) [4]
  pest or weed control at 8966.8 g/ha: 80%
Corn (CN) [5]; 2 lb/acre
  pest or weed control: 20%
Corn (CN) [5]; 4 lb/acre
  pest or weed control at 4483.4 g/ha: 10%
Corn (CN) [5]
  pest or weed control at 8966.8 g/ha: 100%
Turnip (TP) [6]; 2 lb/acre
  pest or weed control at 2241.7 g/ha: 90%
Turnip (TP) [6]; 4 lb/acre
  pest or weed control at 4483.4 g/ha: 100%
Turnip (TP) [6]
  pest or weed control at 8966.8 g/ha: 100%
[7]; 2 lb/acre
  pest or weed control at 2241.7 g/ha: 70%
[7]; 4 lb/acre
  pest or weed control at 4483.4 g/ha: 90%
[7]
  pest or weed control at 8966.8 g/ha: 80%
Bean (BN) [8]; 2 lb/acre
  pest or weed control at 2241.7 g/ha: 100%
Bean (BN) [8]; 4 lb/acre
  pest or weed control at 4483.4 g/ha: 100%
Bean (BN) [8]
  pest or weed control at 8966.8 g/ha: 100%
Amaranth pigweed (PW) [9]; 2 lb/acre
  pest or weed control at 2241.7 g/ha: 50%
Amaranth pigweed (PW) [9]; 4 lb/acre
  pest or weed control at 4483.4 g/ha: 100%
Amaranth pigweed (PW) [9]
  pest or weed control at 8966.8 g/ha: 100%
Johnson grass (JG) [10]; 2 lb/acre
  pest or weed control: 80%
Johnson grass (JG) [10]; 4 lb/acre
  pest or weed control at 4483.4 g/ha: 50%
Johnson grass (JG) [10]
  pest or weed control at 8966.8 g/ha: 40%
Turnip (TP) [11]; 2 lb/acre
  pest or weed control at 2241.7 g/ha: 90%
Turnip (TP) [11]; 4 lb/acre
  pest or weed control at 4483.4 g/ha: 80%
Turnip (TP) [11]
  pest or weed control at 8966.8 g/ha: 100%
Barnyard grass (BG) [12]; 2 lb/acre
  pest or weed control at 2241.7 g/ha: 70%
Barnyard grass (BG) [12]; 4 lb/acre
  pest or weed control at 4483.4 g/ha: 70%
Barnyard grass (BG) [12]
  pest or weed control at 8966.8 g/ha: 100%
Amaranth pigweed (PW) [13]; 2 lb/acre
  pest or weed control at 2241.7 g/ha: 50%
Amaranth pigweed (PW) [13]; 4 lb/acre
  pest or weed control at 4483.4 g/ha: 60%
Amaranth pigweed (PW) [13]
  pest or weed control at 8966.8 g/ha: 70%
Crabgrass (CG) [14]; 2 lb/acre
  pest or weed control: 90%
Crabgrass (CG) [14]; 4 lb/acre
  pest or weed control at 4483.4 g/ha: 90%
Crabgrass (CG) [14]
  pest or weed control at 8966.8 g/ha: 90%
Bean (BN) [15]; 2 lb/acre
  pest or weed control at 2241.7 g/ha: 100%
Bean (BN) [15]; 4 lb/acre
  pest or weed control at 4483.4 g/ha: 90%
Bean (BN) [15]
  pest or weed control at 8966.8 g/ha: 90%
Cotton (CT) [16]; 2 lb/acre
  pest or weed control at 2241.7 g/ha: 40%
Cotton (CT) [16]; 4 lb/acre
  pest or weed control at 4483.4 g/ha: 50%
Cotton (CT) [16]
  pest or weed control at 8966.8 g/ha: 50%
Crabgrass (CG) [17]; 2 lb/acre
  pest or weed control: 90%
Crabgrass (CG) [17]; 4 lb/acre
  pest or weed control at 4483.4 g/ha: 60%
Crabgrass (CG) [17]
  pest or weed control at 8966.8 g/ha: 90%
Corn (CN) [18]; 2 lb/acre
  pest or weed control at 2241.7 g/ha: 20%
Corn (CN) [18]; 4 lb/acre
  pest or weed control at 4483.4 g/ha: 20%
Corn (CN) [18]
  pest or weed control at 8966.8 g/ha: 70%

## CNC(=O)N(C)c1nnc(SC)s1 [Example 38]
Cotton (CT) [1]
  pest or weed control at 8966.8 g/ha: 100%
Johnson grass (JG) [2]
  pest or weed control at 8966.8 g/ha: 80%
[3]
  pest or weed control at 8966.8 g/ha: 100%
Barnyard grass (BG) [4]
  pest or weed control at 8966.8 g/ha: 100%
Corn (CN) [5]
  pest or weed control at 8966.8 g/ha: 100%
Turnip (TP) [6]
  pest or weed control at 8966.8 g/ha: 100%
[7]
  pest or weed control at 8966.8 g/ha: 100%
Bean (BN) [8]
  pest or weed control at 8966.8 g/ha: 100%
Amaranth pigweed (PW) [9]
  pest or weed control at 8966.8 g/ha: 100%
Johnson grass (JG) [10]
  pest or weed control at 8966.8 g/ha: 80%
Turnip (TP) [11]
  pest or weed control at 8966.8 g/ha: 100%
Barnyard grass (BG) [12]
  pest or weed control at 8966.8 g/ha: 90%
Amaranth pigweed (PW) [13]
  pest or weed control at 8966.8 g/ha: 90%
Crabgrass (CG) [14]
  pest or weed control at 8966.8 g/ha: 100%
Bean (BN) [15]
  pest or weed control at 8966.8 g/ha: 100%
Cotton (CT) [16]
  pest or weed control at 8966.8 g/ha: 90%
Crabgrass (CG) [17]
  pest or weed control at 8966.8 g/ha: 80%
Corn (CN) [18]
  pest or weed control at 8966.8 g/ha: 80%
